# Experimental data as given in US7402575B2, “Methods of treating inflammation” (priority 2003, dated 2008).
# “Also recorded” adds a separate entry of the source.
# Test system: E. coli sepsis in dogs
# Assay: Chitobiose given after 3.5 h of E. coli sepsis, reversal of myocardial depression
# Assay type: in vivo, dog
# Set-up: HR: unit not given here
# Conditions: for HR / Pwp: mean±SD
# Description: The E. coli model used in this study was identical to that previously described. Sepsis was induced by the intravenous infusion of 10^10 colony forming units of live E. coli (designation 0111:B4). The bacteria were suspended in normal saline infusion, which was given over 0.5 h. A constant infusion of approximately 5×10^9 colony forming units/h of E. coli was then maintained for the remainder of the experiment.
# During the experiment, the animals (16-21) kg were anesthetized with thiopental sodium (20 mg/kg iv) and constantly infused with sufentanil citrate (1 ug/min) and midazolam (5 ug/kg/min). The rates were adjusted to abolish the palpebral reflex. The animals were placed in the supine position; the trachea was intubated with an endotracheal tube; and the lungs were mechanically ventilated at a tidal volume of 20 ml/kg. The ventilator rate was initially set to maintain blood pH at approximately 7.35 and was changed as necessary over the course of the experiment to maintain blood pH as normal as possible. 100% oxygen was inspired to prevent hypoxemia from contributing to the results, and arterial oxygen tension was maintained greater than 500 mmHg over the course of the study in all experiments.
# A thermister tipped catheter was advanced from the jugular vein into the pulmonary artery to measure pulmonary arterial pressure, mean pulmonary capillary wedge pressure (Pwp), right atrial pressure, thermodilution cardiac output (CO, Columbus Instruments, Ohio), and to obtain mixed venous oxygen blood samples. A polyethylene catheter was placed into the femoral artery to measure mean blood pressure (MAP) and to withdraw samples of blood for blood gas analysis. All catheters were connected to transducers (Cobe Laboratories) and were referenced relative to the left atrium. All transducers were connected to a chart recorder (Astro-Med, W Warwick, R.I.). Heart rate (HR) was measured from the recorder tracing. Stroke volume (SV) was calculated as CO/heart rate. Stroke work (SW) was calculated from SV×(MAP-Pwp).
# After baseline measurements were obtained, bacteria were infused over a six hour period. Chitobiose was infused at 3.5 hours post sepsis after myocardial depression had already developed and was administered over a 0.5 h period. The dose used was 1000 mg (40 mg/kg) in which the drug was mixed in 100 ml D5W. Based on preliminary calculations, this dose could achieve an approximate plasma concentration of 0.5×10^−4 M. 100 mg/hr of chitobiose (5 mg/kg) mixed in 50 ml of D5W was then infused over the remaining course of the experiment. Measurements were obtained after 3.5 hr of sepsis, after treatment, and 1 and 2 hrs post treatment. Stroke work (SW) was the primary measurement of the myocardial contractility used in this study. Pulmonary capillary wedge pressure (Pwp) was used as an index of preload and was maintained constant between conditions at approximately 10 mmHg. Normal saline solution was given as necessary to maintain Pwp relatively constant.
# Statistics included one way analysis of variance for repeated measures and Student Newman Keuls' multiple comparison test. The results are reported mean±1SD.
# [1] = post sepsis (3.5 h), before chitobiose
compound,measurement,setting,value
"CC(=O)N[C@H]1[C@H](O[C@H]2[C@H](O)[C@@H](NC(C)=O)C(O)O[C@@H]2CO)O[C@H](CO)[C@@H](O)[C@@H]1O (stereo partly shown) [chitobiose, N,N′ diacetylglucosamine]",Stroke work post treatment vs 3.5 hrs postsepsis,1 and 2 hrs post treatment,significant increase in stroke-work at 1 and 2 hrs post treatment; also recorded: increased after chitobiose treatment
same,HR,1 hr post treatment,86±20
same,Pwp,1 hr post treatment,9.5±1.2 mmHg
same,HR,2 hrs post treatment,87±12
same,Pwp,2 hrs post treatment,9.9±0.9 mmHg
same,HR,after treatment,91±25
same,HR,baseline,48±9
same,Pwp,baseline,10±0.8 mmHg
same,Mean arterial pressure after treatment vs 3.5 hrs postsepsis,"chitobiose 1000 mg over 0.5 h at 3.5 h post sepsis, then 100 mg/hr, 4 dogs",significant increase in mean arterial pressure after treatment; also recorded: increased after treatment with chitobiose
same,Myocardial depression already developed in sepsis,chitobiose administered after 3.5 hr of sepsis,reversal of the myocardial depression observed
same,Cardiac output vs baseline,"dog, in vivo",higher at the different conditions as compared with baseline
same,Stroke work at the post treatment conditions vs baseline,"dog, in vivo",not different from that found at baseline
same,Stroke-volume among the treatment conditions,"dog, in vivo",did not reach statistical significance
same,HR,[1],98±24
same,Pwp,[1],9.6±0.8 mmHg
same,Pwp,post treatment,10.4±0.5
